Test results: ChEMBL document CHEMBL4507299, “Data for DCP probe PF-04554878” (2021)

Tests used:
[1] = target: D(4) dopamine receptor (Homo sapiens) (UniProt P21917); conditions: Compound concentration 10.0 uM
[2] = target: Tyrosine-protein kinase JAK1 (Homo sapiens) (UniProt P23458)
[3] = target: Ribosomal protein S6 kinase alpha-3 (Homo sapiens) (UniProt P51812)
[4] = target: Bone morphogenetic protein receptor type-2 (Homo sapiens) (UniProt Q13873)
[5] = tested on: Hepatocyte growth factor receptor (Homo sapiens), P08581 [Y1235D]
[6] = target: Mast/stem cell growth factor receptor Kit (Homo sapiens) (UniProt P10721)
[7] = target: Calcium/calmodulin-dependent protein kinase type 1G (Homo sapiens) (UniProt Q96NX5)
[8] = target: Ribosomal protein S6 kinase alpha-2 (Homo sapiens) (UniProt Q15349)
[9] = target: Receptor-interacting serine/threonine-protein kinase 4 (Homo sapiens) (UniProt P57078)
[10] = target: Phosphorylase b kinase regulatory subunit alpha, liver isoform (Homo sapiens) (UniProt P46019)
[11] = target: Calcium/calmodulin-dependent protein kinase type 1B (Homo sapiens) (UniProt Q6P2M8)
[12] = tested on: Epidermal growth factor receptor (Homo sapiens), P00533 [L858R]
[13] = target: Tyrosine-protein kinase Mer (Homo sapiens) (UniProt Q12866)
[14] = target: 5-hydroxytryptamine receptor 2A (Homo sapiens) (UniProt P28223); conditions: Compound concentration 10.0 uM
[15] = target: Tyrosine-protein kinase ABL1 (Homo sapiens, UniProt P00519)
[16] = target: Phosphorylase b kinase gamma catalytic chain, skeletal muscle/heart isoform (Homo sapiens) (UniProt Q16816)
[17] = target: Cyclin-dependent kinase 2 (Homo sapiens) (UniProt P24941)
[18] = target: Mitogen-activated protein kinase 1 (Homo sapiens) (UniProt P28482)
[19] = target: Casein kinase II subunit alpha (Homo sapiens) (UniProt P68400)
[20] = tested on: Epidermal growth factor receptor (Homo sapiens), P00533 [T790M]
[21] = target: Testis-specific serine/threonine-protein kinase 1 (Homo sapiens) (UniProt Q9BXA7)
[22] = target: Serine/threonine-protein kinase NIM1 (Homo sapiens) (UniProt Q8IY84)
[23] = target: Ephrin type-A receptor 1 (Homo sapiens) (UniProt P21709)
[24] = tested on: Epidermal growth factor receptor (Homo sapiens), P00533 [UNDEFINED MUTATION]
[25] = target: cGMP-dependent protein kinase 2 (Homo sapiens) (UniProt Q13237)
[26] = tested on: Epidermal growth factor receptor (Homo sapiens), P00533 [L858R,T790M]
[27] = target: Serine/threonine-protein kinase ULK2 (Homo sapiens) (UniProt Q8IYT8)
[28] = target: Glycogen synthase kinase-3 beta (Homo sapiens, UniProt P49841)
[29] = target: Serine/threonine-protein kinase Sgk2 (Homo sapiens) (UniProt Q9HBY8)
[30] = target: Serine/threonine-protein kinase TNNI3K (Homo sapiens) (UniProt Q59H18)
[31] = tested on: eIF-2-alpha kinase GCN2 (Homo sapiens), Q9P2K8 [S808G]
[32] = target: Tyrosine-protein kinase Yes (Homo sapiens) (UniProt P07947)
[33] = target: Fibroblast growth factor receptor 2 (Homo sapiens) (UniProt P21802)
[34] = tested on: Tyrosine-protein kinase ABL1 (Homo sapiens), P00519 [F317L]
[35] = target: Receptor-interacting serine/threonine-protein kinase 2 (Homo sapiens) (UniProt O43353)
[36] = target: Insulin-like growth factor 1 receptor (Homo sapiens) (UniProt P08069)
[37] = target: Wee1-like protein kinase (Homo sapiens) (UniProt P30291)
[38] = target: Tyrosine-protein kinase Lck (Homo sapiens) (UniProt P06239)
[39] = target: Citron Rho-interacting kinase (Homo sapiens) (UniProt O14578)
[40] = target: Serine/threonine-protein kinase SIK2 (Homo sapiens) (UniProt Q9H0K1)
[41] = target: Non-receptor tyrosine-protein kinase TNK1 (Homo sapiens) (UniProt Q13470)
[42] = target: Serine/threonine-protein kinase Nek4 (Homo sapiens) (UniProt P51957)
[43] = Compound concentration 100.0 nM
[44] = Compound concentration 1000.0 nM

Chain of Serine/threonine-protein kinase Sgk2 (Homo sapiens) (Q9HBY8 whole entry): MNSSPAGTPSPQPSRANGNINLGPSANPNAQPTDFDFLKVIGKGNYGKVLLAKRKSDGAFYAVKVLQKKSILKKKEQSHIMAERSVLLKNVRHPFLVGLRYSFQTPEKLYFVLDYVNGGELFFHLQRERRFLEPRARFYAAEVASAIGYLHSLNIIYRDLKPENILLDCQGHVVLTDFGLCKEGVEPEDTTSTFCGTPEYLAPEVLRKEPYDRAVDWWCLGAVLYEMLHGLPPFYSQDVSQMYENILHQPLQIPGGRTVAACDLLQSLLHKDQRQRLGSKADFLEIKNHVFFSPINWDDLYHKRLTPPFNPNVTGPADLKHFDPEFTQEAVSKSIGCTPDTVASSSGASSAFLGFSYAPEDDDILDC
Chain of Receptor-interacting serine/threonine-protein kinase 2 (Homo sapiens) (O43353 whole entry): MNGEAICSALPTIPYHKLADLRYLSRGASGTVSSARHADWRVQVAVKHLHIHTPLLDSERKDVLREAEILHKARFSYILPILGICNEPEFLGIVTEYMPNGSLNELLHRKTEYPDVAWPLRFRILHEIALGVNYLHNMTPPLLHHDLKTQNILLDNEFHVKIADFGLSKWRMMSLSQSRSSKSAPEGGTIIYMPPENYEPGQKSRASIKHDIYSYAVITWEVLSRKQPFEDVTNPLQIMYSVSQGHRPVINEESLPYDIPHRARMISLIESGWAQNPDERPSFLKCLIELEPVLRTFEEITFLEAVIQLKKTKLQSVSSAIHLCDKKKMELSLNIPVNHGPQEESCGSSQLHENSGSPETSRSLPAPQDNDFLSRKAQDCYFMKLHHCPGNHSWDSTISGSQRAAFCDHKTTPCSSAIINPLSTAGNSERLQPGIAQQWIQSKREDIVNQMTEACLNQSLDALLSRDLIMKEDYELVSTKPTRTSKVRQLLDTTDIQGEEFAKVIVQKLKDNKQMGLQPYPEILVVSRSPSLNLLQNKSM
Chain of cGMP-dependent protein kinase 2 (Homo sapiens) (Q13237 whole entry): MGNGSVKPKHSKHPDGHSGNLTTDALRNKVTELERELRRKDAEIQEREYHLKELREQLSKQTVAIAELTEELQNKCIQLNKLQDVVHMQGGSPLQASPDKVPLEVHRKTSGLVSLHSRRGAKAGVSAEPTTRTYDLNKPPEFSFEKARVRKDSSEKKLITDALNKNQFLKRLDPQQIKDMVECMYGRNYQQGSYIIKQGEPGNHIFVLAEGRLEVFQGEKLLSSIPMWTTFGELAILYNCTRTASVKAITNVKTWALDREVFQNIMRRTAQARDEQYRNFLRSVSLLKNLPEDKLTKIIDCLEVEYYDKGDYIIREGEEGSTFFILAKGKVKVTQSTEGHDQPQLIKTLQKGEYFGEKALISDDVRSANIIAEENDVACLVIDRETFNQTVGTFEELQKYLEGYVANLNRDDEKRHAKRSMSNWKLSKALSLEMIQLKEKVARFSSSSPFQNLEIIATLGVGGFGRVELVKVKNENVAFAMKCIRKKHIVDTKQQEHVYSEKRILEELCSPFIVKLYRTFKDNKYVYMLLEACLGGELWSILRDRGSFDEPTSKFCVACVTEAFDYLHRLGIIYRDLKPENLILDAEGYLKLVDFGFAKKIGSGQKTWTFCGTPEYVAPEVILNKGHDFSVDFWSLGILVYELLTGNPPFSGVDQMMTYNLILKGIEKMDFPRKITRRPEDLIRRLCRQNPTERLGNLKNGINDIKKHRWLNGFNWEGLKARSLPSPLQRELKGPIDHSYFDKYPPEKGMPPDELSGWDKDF
Chain of Casein kinase II subunit alpha (Homo sapiens) (P68400 whole entry, looked up): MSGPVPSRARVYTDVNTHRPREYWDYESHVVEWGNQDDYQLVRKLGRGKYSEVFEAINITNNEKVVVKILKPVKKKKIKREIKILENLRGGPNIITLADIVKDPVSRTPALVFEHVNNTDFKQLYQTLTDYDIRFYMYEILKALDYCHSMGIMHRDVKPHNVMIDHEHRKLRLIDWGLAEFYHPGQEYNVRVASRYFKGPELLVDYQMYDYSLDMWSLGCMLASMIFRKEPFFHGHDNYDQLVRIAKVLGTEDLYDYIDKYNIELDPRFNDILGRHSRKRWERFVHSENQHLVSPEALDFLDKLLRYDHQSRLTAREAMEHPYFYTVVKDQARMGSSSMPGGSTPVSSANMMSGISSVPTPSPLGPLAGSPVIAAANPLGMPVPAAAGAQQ
Chain of Bone morphogenetic protein receptor type-2 (Homo sapiens) (Q13873 whole entry): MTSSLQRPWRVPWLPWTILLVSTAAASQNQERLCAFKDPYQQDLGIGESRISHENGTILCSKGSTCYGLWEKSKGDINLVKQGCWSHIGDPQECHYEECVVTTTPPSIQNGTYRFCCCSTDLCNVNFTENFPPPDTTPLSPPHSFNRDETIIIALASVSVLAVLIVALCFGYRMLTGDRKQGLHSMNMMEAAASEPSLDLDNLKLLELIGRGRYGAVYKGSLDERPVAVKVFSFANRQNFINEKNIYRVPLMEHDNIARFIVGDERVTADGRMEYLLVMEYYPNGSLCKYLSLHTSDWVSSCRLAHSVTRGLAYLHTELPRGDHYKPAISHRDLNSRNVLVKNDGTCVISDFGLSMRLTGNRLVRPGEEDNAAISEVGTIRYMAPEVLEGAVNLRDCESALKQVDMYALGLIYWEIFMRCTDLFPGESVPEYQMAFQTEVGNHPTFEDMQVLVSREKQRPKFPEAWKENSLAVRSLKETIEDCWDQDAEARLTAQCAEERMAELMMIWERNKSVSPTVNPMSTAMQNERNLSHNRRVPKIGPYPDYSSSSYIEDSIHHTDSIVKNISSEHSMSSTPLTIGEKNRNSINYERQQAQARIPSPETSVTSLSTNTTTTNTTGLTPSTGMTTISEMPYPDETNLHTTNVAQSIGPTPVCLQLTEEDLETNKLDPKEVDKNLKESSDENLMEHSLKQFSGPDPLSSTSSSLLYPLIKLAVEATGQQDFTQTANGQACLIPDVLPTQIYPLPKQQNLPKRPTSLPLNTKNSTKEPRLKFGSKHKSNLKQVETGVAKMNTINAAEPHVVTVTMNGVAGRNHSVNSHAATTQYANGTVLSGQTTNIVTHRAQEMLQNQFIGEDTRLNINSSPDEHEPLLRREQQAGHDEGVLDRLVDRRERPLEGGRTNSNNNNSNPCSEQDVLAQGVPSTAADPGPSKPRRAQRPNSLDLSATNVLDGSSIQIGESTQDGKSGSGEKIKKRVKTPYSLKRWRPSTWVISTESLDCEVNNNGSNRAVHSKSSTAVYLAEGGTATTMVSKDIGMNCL
Chain of Serine/threonine-protein kinase Nek4 (Homo sapiens) (P51957 whole entry, looked up): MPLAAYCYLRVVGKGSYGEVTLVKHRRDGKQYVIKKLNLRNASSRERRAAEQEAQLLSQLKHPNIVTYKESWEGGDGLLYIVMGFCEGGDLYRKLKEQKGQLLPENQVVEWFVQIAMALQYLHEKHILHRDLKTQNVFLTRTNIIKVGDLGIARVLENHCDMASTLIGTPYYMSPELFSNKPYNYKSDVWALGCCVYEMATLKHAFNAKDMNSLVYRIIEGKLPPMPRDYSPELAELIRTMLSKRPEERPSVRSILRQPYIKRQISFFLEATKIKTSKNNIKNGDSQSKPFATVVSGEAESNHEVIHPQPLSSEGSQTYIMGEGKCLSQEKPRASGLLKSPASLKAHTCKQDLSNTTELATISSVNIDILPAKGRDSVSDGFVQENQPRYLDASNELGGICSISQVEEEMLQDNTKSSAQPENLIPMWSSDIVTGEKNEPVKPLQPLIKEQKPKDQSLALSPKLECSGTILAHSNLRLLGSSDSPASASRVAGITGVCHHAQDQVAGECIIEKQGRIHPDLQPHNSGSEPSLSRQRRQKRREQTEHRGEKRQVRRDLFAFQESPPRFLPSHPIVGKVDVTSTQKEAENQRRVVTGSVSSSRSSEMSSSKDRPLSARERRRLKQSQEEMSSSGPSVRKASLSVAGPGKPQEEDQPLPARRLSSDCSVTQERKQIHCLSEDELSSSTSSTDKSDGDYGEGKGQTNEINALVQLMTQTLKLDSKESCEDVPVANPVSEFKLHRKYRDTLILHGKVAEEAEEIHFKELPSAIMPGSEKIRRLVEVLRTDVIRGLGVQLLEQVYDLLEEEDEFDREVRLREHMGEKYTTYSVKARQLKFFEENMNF
Chain of Tyrosine-protein kinase ABL1 (Homo sapiens), P00519 [F317L] (P00519 whole entry F317L): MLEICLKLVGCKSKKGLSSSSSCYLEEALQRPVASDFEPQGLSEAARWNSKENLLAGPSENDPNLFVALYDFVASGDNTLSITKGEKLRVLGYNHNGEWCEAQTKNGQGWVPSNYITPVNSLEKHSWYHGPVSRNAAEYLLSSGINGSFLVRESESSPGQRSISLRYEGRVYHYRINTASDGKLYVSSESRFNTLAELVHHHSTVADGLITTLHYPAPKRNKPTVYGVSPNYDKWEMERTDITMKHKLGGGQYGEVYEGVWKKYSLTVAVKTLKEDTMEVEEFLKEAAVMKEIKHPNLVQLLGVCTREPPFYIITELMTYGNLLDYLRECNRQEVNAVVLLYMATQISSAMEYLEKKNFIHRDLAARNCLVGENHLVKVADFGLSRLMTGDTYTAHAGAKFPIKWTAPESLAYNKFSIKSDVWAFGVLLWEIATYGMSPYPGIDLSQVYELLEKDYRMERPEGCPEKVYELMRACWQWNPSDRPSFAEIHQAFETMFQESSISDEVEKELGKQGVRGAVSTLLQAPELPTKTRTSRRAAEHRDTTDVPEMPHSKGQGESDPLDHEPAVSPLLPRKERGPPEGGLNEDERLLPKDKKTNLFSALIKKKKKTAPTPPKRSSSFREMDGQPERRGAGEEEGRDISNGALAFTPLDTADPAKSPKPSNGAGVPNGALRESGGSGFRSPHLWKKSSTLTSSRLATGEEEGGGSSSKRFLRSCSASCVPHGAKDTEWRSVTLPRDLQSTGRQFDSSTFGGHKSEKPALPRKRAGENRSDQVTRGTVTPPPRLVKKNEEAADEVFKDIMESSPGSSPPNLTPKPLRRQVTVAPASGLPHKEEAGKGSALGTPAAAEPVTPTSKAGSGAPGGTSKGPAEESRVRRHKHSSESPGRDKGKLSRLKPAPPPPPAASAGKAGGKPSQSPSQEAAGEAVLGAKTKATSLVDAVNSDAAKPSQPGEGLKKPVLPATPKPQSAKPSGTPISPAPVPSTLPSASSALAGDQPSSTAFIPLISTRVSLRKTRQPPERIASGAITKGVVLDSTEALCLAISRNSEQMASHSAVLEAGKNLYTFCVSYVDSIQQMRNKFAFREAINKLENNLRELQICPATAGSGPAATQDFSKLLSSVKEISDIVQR

CNC(=O)c1ccc(Nc2ncc(C(F)(F)F)c(NCc3nccnc3N(C)S(C)(=O)=O)n2)cc1 [DEFACTINIB]
active: residual activity [2, 43] 28% | residual activity [31, 43] 27%
inactive: inhibition [1] 7.8% | residual activity [3, 43] 100% | residual activity [4, 43] 91% | residual activity [5, 43] 71% | residual activity [6, 43] 100% | residual activity [7, 43] 89% | residual activity [8, 43] 61% | residual activity [9, 43] 89% | residual activity [10, 43] 75% | residual activity [11, 43] 100% | residual activity [12, 43] 100% | residual activity [13, 43] 54% | inhibition [14] 0.93% | residual activity [15, 43] 100% | residual activity [16, 43] 100% | residual activity [17, 43] 97% | residual activity [18, 43] 76% | residual activity [19, 43] 61% | residual activity [20, 43] 99% | residual activity [21, 43] 64% | residual activity [22, 43] 100% | residual activity [23, 43] 98% | residual activity [24, 43] 91% | residual activity [25, 43] 100% | residual activity [26, 43] 91% | residual activity [27, 43] 75% | residual activity [28, 43] 87% | residual activity [29, 43] 96% | residual activity [30, 43] 100% | residual activity [32, 43] 100% | residual activity [33, 43] 100% | residual activity [34, 43] 93% | residual activity [35, 43] 100% | residual activity [36, 43] 84% | residual activity [37, 43] 95% | residual activity [38, 43] 87% | residual activity [39, 43] 68% | residual activity [40, 43] 100% | residual activity [41, 43] 100% | residual activity [42, 43] 76%

CN(c1ccnc(CNc2nc(Nc3ccc4c(c3)CC(=O)N4)ncc2C(F)(F)F)n1)S(C)(=O)=O [PF-00911705]
active: residual activity [5, 44] 10% | residual activity [9, 44] 6% | residual activity [13, 44] 21% | residual activity [15, 44] 40% | residual activity [19, 44] 26% | residual activity [22, 44] 9.5% | residual activity [24, 44] 44% | residual activity [27, 44] 5.4% | residual activity [31, 44] 6.7% | residual activity [37, 44] 13% | residual activity [38, 44] 46% | residual activity [40, 44] 41%
inactive: inhibition [1] 2.34% | residual activity [2, 44] 94% | residual activity [3, 44] 85% | residual activity [4, 44] 60% | residual activity [6, 44] 52% | residual activity [7, 44] 95% | residual activity [8, 44] 95% | residual activity [10, 44] 63% | residual activity [11, 44] 66% | residual activity [12, 44] 73% | inhibition [14] 4.75% | residual activity [16, 44] 76% | residual activity [17, 44] 89% | residual activity [18, 44] 70% | residual activity [20, 44] 100% | residual activity [21, 44] 56% | residual activity [23, 44] 86% | residual activity [25, 44] 68% | residual activity [26, 44] 56% | residual activity [28, 44] 57% | residual activity [29, 44] 75% | residual activity [30, 44] 73% | residual activity [32, 44] 77% | residual activity [33, 44] 59% | residual activity [34, 44] 84% | residual activity [35, 44] 82% | residual activity [36, 44] 100% | residual activity [39, 44] 99% | residual activity [41, 44] 65% | residual activity [42, 44] 84%
